Assay results: patent US20250250230A1, “HETEROCYCLIC COMPOUND” (TAKEDA PHARMACEUTICAL COMPANY LIMITED, priority 2022, published 2025)

Columns and labels:
[1] = biological target: T1, human orexin type 2 receptor (Homo sapiens, UniProt O43614); assay: Measurement of orexin type 2 receptor agonist activity (calcium fluorescence, Fluo-4 AM, FDSS); assay type: cell-based; settings: test compound 3 μM; CHO cells expressing human OX2 receptor; DMSO = 0%, orexin A (human) = 100%
T1 construct: expressed in transfected cells
T1 sequence (O43614 1-444): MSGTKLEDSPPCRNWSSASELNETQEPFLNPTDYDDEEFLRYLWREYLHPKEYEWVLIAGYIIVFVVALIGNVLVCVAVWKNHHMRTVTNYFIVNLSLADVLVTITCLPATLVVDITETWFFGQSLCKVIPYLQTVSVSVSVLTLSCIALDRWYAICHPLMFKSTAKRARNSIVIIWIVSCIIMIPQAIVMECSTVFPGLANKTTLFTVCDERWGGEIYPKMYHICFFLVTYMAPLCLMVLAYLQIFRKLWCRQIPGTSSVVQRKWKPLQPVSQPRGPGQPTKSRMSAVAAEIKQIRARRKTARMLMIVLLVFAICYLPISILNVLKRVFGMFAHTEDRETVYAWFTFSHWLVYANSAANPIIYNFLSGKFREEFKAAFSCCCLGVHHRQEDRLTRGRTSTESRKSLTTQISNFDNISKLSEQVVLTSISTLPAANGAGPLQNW
Procedure, shortened: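 CHO-K1 cells stably expressing human OX2R were loaded with Fluo-4 AM (30 min 37 °C, 30 min RT) in HEPES-buffered HBSS with 0.1% BSA and probenecid. Calcium fluorescence was followed on FDSS for 2 min after compound addition; activity normalised to DMSO (0%) and 10 nM orexin A (100%).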

cynomolgus monkeys = assay: Evaluation of wake-promoting effects in cynomolgus monkeys (EEG/EMG); assay type: in vivo, cynomolgus monkey; settings: 10 mg/kg p.o. at ZT12, time spent in wakefulness for 4 h after administration, male cynomolgus monkeys, n=2
Procedure: The wake-promoting effects were evaluated by measuring the electroencephalogram (EEG) and electromyogram (EMG) in cynomolgus monkeys. Under isoflurane anesthesia (0.5-5%, Pfizer Japan Inc., Tokyo, Japan), male cynomolgus monkeys (2-3 years old, Hamri Co., Ltd., Ibaraki, Japan) were surgically implanted with radio-telemetry transmitters (L03-F3, Data Sciences International Inc., MN, USA). EEG electrodes were screwed into the skull at the parietal area. EMG electrodes were implanted on the cervical muscles. After the surgery, each monkey was given penicillin (100,000 units/head, i.m., Meiji Seika Pharma Co., Ltd., Tokyo, Japan), buprenorphine (0.02 mg/kg, i.m., Otsuka Pharmaceutical Co., Ltd., Tokyo, Japan) and prednisolone (1 mg/kg, s.c., Kyoritsu Seiyaku Co., Ltd., Tokyo, Japan) daily for one week. After at least a 1-month recovery period in home cages, the monkeys were habituated to the recording chamber placed in a soundproof room. EEG and EMG signals were recorded using the telemetry system (Ponemah software, Data Sciences International Inc., MN, USA) and the signals were analyzed using SleepSign software (Kissei Comtec Co., Ltd., Nagano, Japan). After confirming long sleep in dark phase in the experimental room, we used animals to examine the wake-promoting effect of compounds. Test compounds (10 mg/kg) suspended in 0.5% methylcellulose aqueous solution, or vehicle (i.e., 0.5% methylcellulose aqueous solution) was administered orally (p.o.) to monkeys at zeitgeber time 12 (ZT12) in a volume of 5 mL/kg body weight in pre-post design (n=2). EEG and EMG recordings were performed for 4 h after the compound administration. The time spent in wakefulness for 4 h after administration (% of vehicle treatment) was calculated by using SleepSign.

SMILES | OX2R agonist activity (3 μM, %) [1] [%] | Wakefulness time (% of vehicle treatment) (Mean) (cynomolgus monkeys)
C[C@@H]1CN(C(=O)[C@@H]2C[C@@]2(F)c2ccccc2-c2c(F)cccc2F)[C@@H]1CNS(C)(=O)=O [Example 358, N-({(2S,3R)-1-[(1S,2S)-2-(2′,6′-difluoro[1,1′-biphenyl]-2-yl)-2-fluorocyclopropane-1-carbonyl]-3-methylazetidin-2-yl}methyl)methanesulfonamide] | 96 | 407.11 % of vehicle treatment
Cc1ccc([C@]2(F)C[C@H]2C(=O)N2C[C@@H](F)[C@H]2CNS(C)(=O)=O)c(-c2c(F)cccc2F)c1 [Example 411, N-({(2R,3R)-1-[(1S,2S)-2-(2′,6′-difluoro-5-methyl [1,1′-biphenyl]-2-yl)-2-fluorocyclopropane-1-carbonyl]-3-fluoroazetidin-2-yl}methyl)methanesulfonamide] | 95 | 361.41 % of vehicle treatment
CCS(=O)(=O)NC[C@@H]1[C@H](F)CN1C(=O)[C@@H]1C[C@@]1(F)c1ccccc1-c1c(F)cccc1F [Example 393, N-({(2R,3R)-1-[(1S,2S)-2-(2′,6′-difluoro [1,1′-biphenyl]-2-yl)-2-fluorocyclopropane-1-carbonyl]-3-fluoroazetidin-2-yl}methyl)ethanesulfonamide] | 104 | 731.96 % of vehicle treatment
CNS(=O)(=O)NC[C@@H]1[C@H](F)CN1C(=O)[C@@H]1C[C@@]1(F)c1ccc(F)cc1-c1c(F)cccc1F [Example 423, N-({(2R,3R)-3-fluoro-1-[(1S,2S)-2-fluoro-2-(2′,5,6′-trifluoro[1,1′-biphenyl]-2-yl)cyclopropane-1-carbonyl]azetidin-2-yl}methyl)-N′-methylsulfuric Diamide] | 102 | 391.59 % of vehicle treatment
C[C@H](NS(C)(=O)=O)[C@@H]1CCN1C(=O)[C@@H]1C[C@@]1(F)c1ccccc1-c1c(F)cccc1F [Example 353, N-[(1S)-1-{(2S)-1-[(1S,2S)-2-(2′,6′-difluoro [1,1′-biphenyl]-2-yl)-2-fluorocyclopropane-1-carbonyl]azetidin-2-yl}ethyl]methanesulfonamide] | 102 | 397.50 % of vehicle treatment
